Measured values from patent US20250333424A1, “ANTIVIRAL COMPOUNDS” (Gilead Sciences, Inc., priority 2024, published 2025).

Tested on: monocytic THP1 cells infected with HIV VSV-G pseudotyped GFP-NEF reporter virus
Experiment: cells
Format: cell-based
Conditions: Human immunodeficiency virus 1, THP-1, 24 h

Cc1cc(/C=C/C#N)cc(C)c1Oc1nc(NC23CC(C#N)(C2)C3(F)F)nc2nc3n(c12)CCCO3 [Compound 188, (E)-3-((4-(4-(2-cyanovinyl)-2,6-dimethylphenoxy)-7,8-dihydro-6H-[1,3]oxazino[2,3-f]purin-2-yl)amino)-2,2-difluorobicyclo[1.1.1]pentane-1-carbonitrile]
EC50: 70.4 nM

Cc1cc(/C=C/C#N)cc(C)c1Oc1nc(NC23CC(C#N)(C2)C3)nc2nc3n(c12)CC(F)(F)CO3 [Compound 189, (E)-3-((4-(4-(2-cyanovinyl)-2,6-dimethylphenoxy)-7,7-difluoro-7,8-dihydro-6H-[1,3]oxazino[2,3-f]purin-2-yl)amino)bicyclo[1.1.1]pentane-1-carbonitrile]
EC50: 109 nM

Cc1cc(/C=C/C#N)cc(C)c1Oc1nc(NC23CC(C#N)(C2)C3)nc2[nH]c(=O)n(C(F)F)c12 [Compound 190, (E)-3-((6-(4-(2-cyanovinyl)-2,6-dimethylphenoxy)-7-(difluoromethyl)-8-oxo-8,9-dihydro-7H-purin-2-yl)amino)bicyclo[1.1.1]pentane-1-carbonitrile]
EC50: 329 nM

Cc1cc(/C=C/C#N)cc(C)c1Oc1nc(NC23CC(C#N)(C2)C3)nc2nc3n(c12)CCOC3 [Compound 195, (E)-3-((4-(4-(2-cyanovinyl)-2,6-dimethylphenoxy)-6,7-dihydro-9H-[1,4]oxazino[3,4-f]purin-2-yl)amino)bicyclo[1.1.1]pentane-1-carbonitrile]
EC50: 37 nM

Cc1cc(/C=C/C#N)cc(C)c1Oc1nc(NC23CC(C#N)(C2)C3)nc2nc3n(c12)CCC3 [Compound 196, (E)-3-((4-(4-(2-cyanovinyl)-2,6-dimethylphenoxy)-7,8-dihydro-6H-pyrrolo[2,1-f]purin-2-yl)amino)bicyclo[1.1.1]pentane-1-carbonitrile]
EC50: 24.6 nM

Cc1cc(/C=C/C#N)cc(C)c1Oc1nc(NC23CC(C#N)(C2)C3)nc2c1C1(C)OCC(C)(C)CN1C2=O (stereo not shown) [Compound 197, (E)-3-((4-(4-(2-cyanovinyl)-2,6-dimethylphenoxy)-4b,7,7-trimethyl-10-oxo-4b,7,8,10-tetrahydro-6H-pyrimido[5′,4′:3,4]pyrrolo[2,1-b][1,3]oxazin-2-yl)amino)bicyclo[1.1.1]pentane-1-carbonitrile]
EC50: 97.3 nM

Cc1cc(/C=C/C#N)cc(C)c1Oc1nc(NC23CC(C#N)(C2)C3)nc2c1C1(C)O[C@@H](CO)CN1C2=O (stereo partly drawn) [Compound 264, 3-(((6R)-4-(4-((E)-2-cyanovinyl)-2,6-dimethylphenoxy)-6-(hydroxymethyl)-4b-methyl-9-oxo-4b,6,7,9-tetrahydrooxazolo[3′,2′:1,5]pyrrolo[3,4-d]pyrimidin-2-yl)amino)bicyclo[1.1.1]pentane-1-carbonitrile]
EC50: 118 nM

Cc1cc(/C=C/C#N)cc(C)c1Oc1nc(NC23CC(C#N)(C2)C3)nc2c1C(O)(CF)NC2=O (stereo not shown) [Compound 265, (E)-3-((4-(4-(2-cyanovinyl)-2,6-dimethylphenoxy)-5-(fluoromethyl)-5-hydroxy-7-oxo-6,7-dihydro-5H-pyrrolo[3,4-d]pyrimidin-2-yl)amino)bicyclo[1.1.1]pentane-1-carbonitrile]
EC50: 86.4 nM

Cc1cc(/C=C/C#N)cc(C)c1Oc1nc(NC23CC(C#N)(C2)C3)nc2c1/C(=C/F)NC2=O [Compound 266, 3-(((Z)-4-(4-((E)-2-cyanovinyl)-2,6-dimethylphenoxy)-5-(fluoromethylene)-7-oxo-6,7-dihydro-5H-pyrrolo[3,4-d]pyrimidin-2-yl)amino)bicyclo[1.1.1]pentane-1-carbonitrile]
EC50: 61 nM

Cc1cc(/C=C/C#N)cc(C)c1Oc1nc(NC23CC(C#N)(C2)C3)nc2c1C(O)(CF)N(C1CC1)C2=O (stereo not shown) [Compound 267, (E)-3-((4-(4-(2-cyanovinyl)-2,6-dimethylphenoxy)-6-cyclopropyl-5-(fluoromethyl)-5-hydroxy-7-oxo-6,7-dihydro-5H-pyrrolo[3,4-d]pyrimidin-2-yl)amino)bicyclo[1.1.1]pentane-1-carbonitrile]
EC50: 80.3 nM

Cc1cc(/C=C/C#N)cc(C)c1Oc1nc(NC23CC(C#N)(C2)C3)nc2c1/C(=C/F)N(C1CC1)C2=O [Compound 268, 3-(((Z)-4-(4-((E)-2-cyanovinyl)-2,6-dimethylphenoxy)-6-cyclopropyl-5-(fluoromethylene)-7-oxo-6,7-dihydro-5H-pyrrolo[3,4-d]pyrimidin-2-yl)amino)bicyclo[1.1.1]pentane-1-carbonitrile]
EC50: 173 nM

C=C1c2c(Oc3c(C)cc(/C=C/C#N)cc3C)nc(NC34CC(C#N)(C3)C4)nc2C(=O)N1[C@H]1CC[C@@H](O)C1 [Compound 269, 3-((4-(4-((E)-2-cyanovinyl)-2,6-dimethylphenoxy)-6-((1S,3R)-3-hydroxycyclopentyl)-5-methylene-7-oxo-6,7-dihydro-5H-pyrrolo[3,4-d]pyrimidin-2-yl)amino)bicyclo[1.1.1]pentane-1-carbonitrile]
EC50: 57.3 nM

C=C1c2c(Oc3c(C)cc(/C=C/C#N)cc3C)nc(NC34CC(C#N)(C3)C4)nc2C(=O)N1CCCCO [Compound 270, (E)-3-((4-(4-(2-cyanovinyl)-2,6-dimethylphenoxy)-6-(4-hydroxybutyl)-5-methylene-7-oxo-6,7-dihydro-5H-pyrrolo[3,4-d]pyrimidin-2-yl)amino)bicyclo[1.1.1]pentane-1-carbonitrile]
EC50: 19 nM

Cc1cc(/C=C/C#N)cc(C)c1Oc1nc(NC23CC(C#N)(C2)C3)nc2c1C1(C)OCC[C@H](C)N1C2=O (stereo partly drawn) [Compound 271, 3-(((8S)-4-(4-((E)-2-cyanovinyl)-2,6-dimethylphenoxy)-4b,8-dimethyl-10-oxo-4b,7,8,10-tetrahydro-6H-pyrimido[5′,4′:3,4]pyrrolo[2,1-b][1,3]oxazin-2-yl)amino)bicyclo[11.1.1]pentane-1-carbonitrile]
EC50: 52 nM

Cc1cc(/C=C/C#N)cc(C)c1Oc1nc(NC23CC(C#N)(C2)C3)nc2c1C1(C)OCC[C@@H](C)N1C2=O (stereo partly drawn) [Compound 272, 3-(((8R)-4-(4-((E)-2-cyanovinyl)-2,6-dimethylphenoxy)-4b,8-dimethyl-10-oxo-4b,7,8,10-tetrahydro-6H-pyrimido[5′,4′:3,4]pyrrolo[2,1-b][1,3]oxazin-2-yl)amino)bicyclo[1.1.1]pentane-1-carbonitrile]
EC50: 68.3 nM

Cc1cc(/C=C/C#N)cc(C)c1Oc1nc(NC23CC(C#N)(C2)C3)nc2c1C1(C)OCCN1C2=O (stereo not shown) [Compound 273, (E)-3-((4-(4-(2-cyanovinyl)-2,6-dimethylphenoxy)-4b-methyl-9-oxo-4b,6,7,9-tetrahydrooxazolo[3′,2′:1,5]pyrrolo[3,4-d]pyrimidin-2-yl)amino)bicyclo[1.1.1]pentane-1-carbonitrile]
EC50: 16 nM

Cc1cc(/C=C/C#N)cc(C)c1Oc1nc(NC23CC(C#N)(C2)C3)nc2c1nc1n2CC2(CC2)CO1 [Compound 274, (E)-3-((4′-(4-(2-cyanovinyl)-2,6-dimethylphenoxy)-7′H,9′H-spiro[cyclopropane-1,8′-[1,3]oxazino[3,2-e]purin]-2′-yl)amino)bicyclo[1.1.1]pentane-1-carbonitrile]
EC50: 111 nM

Cc1cc(/C=C/C#N)cc(C)c1C(=O)c1nc(NC23CC(C#N)(C2)C3)nc2nn(C)cc12 [Compound 275, (E)-3-((4-(4-(2-cyanovinyl)-2,6-dimethylbenzoyl)-2-methyl-2H-pyrazolo[3,4-d]pyrimidin-6-yl)amino)bicyclo[1.1.1]pentane-1-carbonitrile]
EC50: 113 nM

Cc1cc(/C=C/C#N)cc(C)c1C(O)c1nc(NC23CC(C#N)(C2)C3)nc2nn(C)cc12 (stereo not shown) [Compound 276, (E)-3-((4-((4-(2-cyanovinyl)-2,6-dimethylphenyl)(hydroxy)methyl)-2-methyl-2H-pyrazolo[3,4-d]pyrimidin-6-yl)amino)bicyclo[1.1.1]pentane-1-carbonitrile]
EC50: 194 nM

Cc1cc(/C=C/C#N)cc(C)c1Cc1nc(NC23CC(C#N)(C2)C3)nc2nn(C)cc12 [Compound 277, (E)-3-((4-(4-(2-cyanovinyl)-2,6-dimethylbenzyl)-2-methyl-2H-pyrazolo[3,4-d]pyrimidin-6-yl)amino)bicyclo[1.1.1]pentane-1-carbonitrile]
EC50: 49.9 nM

Cc1cc(/C=C/C#N)cc(C)c1Oc1nc(NC23CC(C#N)(C2)C3)nc2c1[C@@H]1OCCCN1C2=O [Compound 279, (S,E)-3-((4-(4-(2-cyanovinyl)-2,6-dimethylphenoxy)-10-oxo-4b,7,8,10-tetrahydro-6H-pyrimido[5′,4′:3,4]pyrrolo[2,1-b][1,3]oxazin-2-yl)amino)bicyclo[1.1.1]pentane-1-carbonitrile]
EC50: 57.2 nM

Cc1cc(/C=C/C#N)cc(C)c1Oc1nc(NC23CC(C#N)(C2)C3)nc2c1[C@H]1OCCCN1C2=O [Compound 280, (R,E)-3-((4-(4-(2-cyanovinyl)-2,6-dimethylphenoxy)-10-oxo-4b,7,8,10-tetrahydro-6H-pyrimido[5′,4′:3,4]pyrrolo[2,1-b][1,3]oxazin-2-yl)amino)bicyclo[1.1.1]pentane-1-carbonitrile]
EC50: 33.7 nM

Cc1cc(/C=C/C#N)cc(C)c1Oc1nc(NC23CC(C#N)(C2)C3)nc2c1C(O)NC2=O (stereo not shown) [Compound 286, (E)-3-((4-(4-(2-cyanovinyl)-2,6-dimethylphenoxy)-5-hydroxy-7-oxo-6,7-dihydro-5H-pyrrolo[3,4-d]pyrimidin-2-yl)amino)bicyclo[1.1.1]pentane-1-carbonitrile]
EC50: 72.4 nM

COC1NC(=O)c2nc(NC34CC(C#N)(C3)C4)nc(Oc3c(C)cc(/C=C/C#N)cc3C)c21 (stereo not shown) [Compound 287, (E)-3-((4-(4-(2-cyanovinyl)-2,6-dimethylphenoxy)-5-methoxy-7-oxo-6,7-dihydro-5H-pyrrolo[3,4-d]pyrimidin-2-yl)amino)bicyclo[1.1.1]pentane-1-carbonitrile]
EC50: 26.2 nM

CCOC1NC(=O)c2nc(NC34CC(C#N)(C3)C4)nc(Oc3c(C)cc(/C=C/C#N)cc3C)c21 (stereo not shown) [Compound 288, (E)-3-((4-(4-(2-cyanovinyl)-2,6-dimethylphenoxy)-5-ethoxy-7-oxo-6,7-dihydro-5H-pyrrolo[3,4-d]pyrimidin-2-yl)amino)bicyclo[1.1.1]pentane-1-carbonitrile]
EC50: 29.8 nM
